Tests used:
Type in all cases: in vivo
[1] = tested on: canarygrass (Phalaris minor); assay: Test B postemergence plant response; conditions: Postemergence
Method in brief: (§1)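 Plants at the 1- to 4-leaf stage (2 to 18 cm tall), grown in pots of peat moss/vermiculite medium with wetting agent and starter nutrients, received postemergence applications of test chemicals. After 13 to 15 days in a greenhouse, injury was rated visually against untreated controls on a 0 (no effect) to 100 (complete control) scale.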

[2] = tested on: chickweed (Stellaria media); assay: Test B postemergence plant response; conditions: Postemergence
Method in brief: as §1

[3] = tested on: windgrass (Apera spica-venti); assay: Test B postemergence plant response; conditions: Postemergence
Method in brief: as §1

[4] = tested on: kochia (Kochia scoparia); assay: Test B pre-/postemergence plant response
Source text: (§2) Seeds of plant species selected from blackgrass (Alopecurus myosuroides), downy bromegrass (Bromus tectorum), green foxtail (Setaria viridis), Italian ryegrass (Lolium multiflorum), wheat (Triticum aestivum), wild oat (Avena fatua), deadnettle (henbit deadnettle, Lamium amplexicaule), galium (catchweed bedstraw, Galium aparine), bermudagrass (Cynodon dactylon), Surinam grass (Brachiaria decumbens), cocklebur (Xanthium strumarium), corn (Zea mays), large crabgrass (Digitaria sanguinalis), woolly cupgrass (Eriochloa villosa), giant foxtail (Setaria faberii), goosegrass (Eleusine indica), johnsongrass (Sorghum halepense), kochia (Kochia scoparia), lambsquarters (Chenopodium album), morningglory (Ipomoea coccinea), nightshade (eastern black nightshade, Solanum ptycanthum), yellow nutsedge (Cyperus esculentus), pigweed (Amaranthus retroflexus), ragweed (common ragweed, Ambrosia elatior), Russian thistle (Salsola kali), soybean (Glycine max), sunflower (common oilseed sunflower, Helianthus annuus) and velvetleaf (Abutilon theophrasti) were planted into a blend of loam soil and sand and treated preemergence with test compounds formulated in a non-phytotoxic solvent mixture which included a surfactant.
(§3) At the same time, plants selected from these crop and weed species and also winter barley (Hordeum vulgare), canarygrass (Phalaris minor), chickweed (Stellaria media) and windgrass (Apera spica-venti) were planted in pots containing Redi-Earth® planting medium (Scotts Company, 14111 Scottslawn Road, Marysville, Ohio 43041) comprising spaghnum peat moss, vermiculite, wetting agent and starter nutrients and treated with postemergence applications of some of the test chemicals formulated in the same manner. Plants ranged in height from 2 to 18 cm (1- to 4-leaf stage) for postemergence treatments.
(§4) Treated plants and controls were maintained in a greenhouse for 13 to 15 days, after which time all treated plants were visually evaluated and compared to controls. Plant response ratings, summarized in Table B, are based on a scale of 0 to 100 where 0 is no effect and 100 is complete control. A dash (-) response means no test result.

[5] = tested on: velvetleaf (Abutilon theophrasti); assay: Test B pre-/postemergence plant response
Source text: as §2, §3, §4

[6] = tested on: blackgrass (Alopecurus myosuroides); assay: Test B pre-/postemergence plant response
Source text: as §2, §3, §4

[7] = tested on: wheat (Triticum aestivum); assay: Test B pre-/postemergence plant response
Source text: as §2, §3, §4

[8] = tested on: cocklebur (Xanthium strumarium); assay: Test B pre-/postemergence plant response
Source text: as §2, §3, §4

[9] = tested on: lambsquarters (Chenopodium album); assay: Test B pre-/postemergence plant response
Source text: as §2, §3, §4

[10] = tested on: Surinam grass (Brachiaria decumbens); assay: Test B pre-/postemergence plant response
Source text: as §2, §3, §4

[11] = tested on: pigweed (Amaranthus retroflexus); assay: Test B pre-/postemergence plant response
Source text: as §2, §3, §4

[12] = tested on: soybean (Glycine max); assay: Test B pre-/postemergence plant response
Source text: as §2, §3, §4

[13] = tested on: wild oat (Avena fatua); assay: Test B pre-/postemergence plant response
Source text: as §2, §3, §4

[14] = 31 g ai/ha, scale 0 to 100 (0 no effect, 100 complete control)
[15] = 62 g ai/ha, scale 0 (no effect) to 100 (complete control), 13 to 15 days
[16] = 125 g ai/ha, visual rating after 13 to 15 days, scale 0 (no effect) to 100 (complete control)
[17] = 250 g ai/ha, Preemergence, 0 to 100 scale
[18] = Postemergence, 31 g ai/ha, scale 0 to 100 (0 no effect, 100 complete control)
[19] = Postemergence, 62 g ai/ha, scale 0 (no effect) to 100 (complete control), 13 to 15 days
[20] = Postemergence, 125 g ai/ha, visual rating after 13 to 15 days, scale 0 (no effect) to 100 (complete control)
[21] = Postemergence, 250 g ai/ha, scale 0 to 100
[22] = Preemergence, 31 g ai/ha, scale 0 to 100 (0 no effect, 100 complete control)
[23] = Preemergence, 62 g ai/ha, scale 0 to 100 (0 no effect, 100 complete control)
[24] = Preemergence, 125 g ai/ha, 0 to 100 scale
[25] = 31 g ai/ha, 0 to 100 scale (0 no effect, 100 complete control)
[26] = 125 g ai/ha, scale 0 to 100 (0 no effect, 100 complete control)
[27] = 250 g ai/ha, scale 0 to 100 (0 no effect, 100 complete control), 13 to 15 days
[28] = Postemergence, 31 g ai/ha, 0 to 100 scale (0 no effect, 100 complete control)
[29] = Postemergence, 125 g ai/ha, scale 0 to 100 (0 no effect, 100 complete control)
[30] = Postemergence, 250 g ai/ha, scale 0 to 100 (0 no effect, 100 complete control), 13 to 15 days

3-cyclohexyl-5-[(2-hydroxy-6-oxo-1-cyclohexen-1-yl)carbonyl]-2-phenyl-4(3H)-pyrimidinone [Compound 128]
5: Plant response rating, Blackgrass [6, 18] | Plant response rating, Blackgrass [6, 19] | Plant response rating, Blackgrass [6, 23] | Plant response rating, Wheat [7, 17]
60: Plant response rating, Blackgrass [6, 17] | Plant response rating, Surinam Grass [10, 18]
35: Plant response rating, Wheat [7, 19] | Plant response rating, Cocklebur [8, 22] | Surinam Grass plant response rating [10, 24]
70: Plant response rating, Lambsquarters [9, 19] | Plant response rating, Surinam Grass [10, 19] | Plant response rating, Oat, Wild [13, 20] | Oat, Wild plant response rating [13, 21]
100: Plant response rating, Chickweed [2, 16] | Chickweed plant response rating ([2]; 250 g ai/ha, scale 0 to 100) | Plant response rating, Kochia [4, 17] | Plant response rating, Kochia [4, 23] | Kochia plant response rating [4, 24] | Plant response rating, Velvetleaf [5, 17] | Plant response rating, Velvetleaf [5, 20] | Velvetleaf plant response rating [5, 21] | Plant response rating, Velvetleaf [5, 22] | Plant response rating, Velvetleaf [5, 23] | Velvetleaf plant response rating [5, 24] | Plant response rating, Cocklebur [8, 17] | Plant response rating, Cocklebur [8, 19] | Plant response rating, Cocklebur [8, 20] | Cocklebur plant response rating [8, 21] | Plant response rating, Lambsquarters [9, 17] | Plant response rating, Lambsquarters [9, 22] | Plant response rating, Lambsquarters [9, 23] | Lambsquarters plant response rating [9, 24] | Plant response rating, Pigweed [11, 17] | Plant response rating, Pigweed [11, 22] | Plant response rating, Pigweed [11, 23] | Pigweed plant response rating [11, 24] | Plant response rating, Soybean [12, 18] | Plant response rating, Soybean [12, 19] | Plant response rating, Soybean [12, 20] | Soybean plant response rating [12, 21]
45: Wheat plant response rating [7, 21] | Plant response rating, Soybean [12, 23]
65: Plant response rating, Pigweed [11, 18] | Soybean plant response rating [12, 24]
50: Plant response rating, Canarygrass [1, 14] | Plant response rating, Canarygrass [1, 15] | Plant response rating, Lambsquarters [9, 18] | Plant response rating, Oat, Wild [13, 18] | Plant response rating, Oat, Wild [13, 19]
40: Plant response rating, Windgrass [3, 14] | Plant response rating, Blackgrass [6, 20] | Blackgrass plant response rating [6, 21] | Plant response rating, Wheat [7, 20] | Plant response rating, Oat, Wild [13, 17]
30: Blackgrass plant response rating [6, 24] | Plant response rating, Wheat [7, 18]
98: Plant response rating, Chickweed [2, 15] | Windgrass plant response rating ([3]; 250 g ai/ha, scale 0 to 100) | Kochia plant response rating [4, 21] | Lambsquarters plant response rating [9, 21] | Pigweed plant response rating [11, 21]
15: Plant response rating, Kochia [4, 22]
25: Plant response rating, Kochia [4, 18] | Plant response rating, Kochia [4, 19] | Plant response rating, Surinam Grass [10, 23] | Plant response rating, Soybean [12, 22]
10: Oat, Wild plant response rating [13, 24]
90: Plant response rating, Canarygrass [1, 16] | Canarygrass plant response rating ([1]; 250 g ai/ha, scale 0 to 100) | Plant response rating, Cocklebur [8, 18]
95: Plant response rating, Velvetleaf [5, 19] | Cocklebur plant response rating [8, 24] | Plant response rating, Lambsquarters [9, 20] | Plant response rating, Soybean [12, 17]
75: Plant response rating, Kochia [4, 20] | Plant response rating, Cocklebur [8, 23] | Plant response rating, Surinam Grass [10, 17]
85: Plant response rating, Windgrass [3, 15] | Plant response rating, Windgrass [3, 16] | Plant response rating, Surinam Grass [10, 20] | Surinam Grass plant response rating [10, 21] | Plant response rating, Pigweed [11, 20]
80: Plant response rating, Chickweed [2, 14] | Plant response rating, Velvetleaf [5, 18] | Plant response rating, Pigweed [11, 19]
0: Plant response rating, Blackgrass [6, 22] | Plant response rating, Wheat [7, 22] | Plant response rating, Wheat [7, 23] | Wheat plant response rating [7, 24] | Plant response rating, Surinam Grass [10, 22] | Plant response rating, Oat, Wild [13, 22] | Plant response rating, Oat, Wild [13, 23]

O=C1CCCC(O)=C1C(=O)c1cnc(-c2cccs2)n(C2CCCCC2)c1=O [Compound 189]
90: Plant response rating, Soybean [12, 28]
5: Plant response rating, Canarygrass [1, 26] | Plant response rating, Blackgrass [6, 29] | Plant response rating, Blackgrass [6, 30] | Plant response rating, Oat, Wild [13, 28]
85: Plant response rating, Kochia [4, 28] | Plant response rating, Velvetleaf [5, 28] | Plant response rating, Surinam Grass [10, 30]
80: Plant response rating, Windgrass [3, 27] | Plant response rating, Surinam Grass [10, 29] | Plant response rating, Pigweed [11, 28]
25: Plant response rating, Windgrass [3, 25] | Plant response rating, Oat, Wild [13, 30]
0: Plant response rating, Canarygrass [1, 25] | Blackgrass plant response rating (0 to 100 scale) ([6]; 62 g ai/ha, postemergence, 0 is no effect, 100 is complete control, 13 to 15 days) | Plant response rating, Blackgrass [6, 28] | Plant response rating, Wheat [7, 28] | Plant response rating, Wheat [7, 29] | Plant response rating, Wheat [7, 30]
60: Plant response rating, Windgrass [3, 26] | Plant response rating, Cocklebur [8, 28]
65: Plant response rating, Surinam Grass [10, 28]
98: Plant response rating, Chickweed [2, 25] | Plant response rating, Kochia [4, 29] | Plant response rating, Lambsquarters [9, 28] | Plant response rating, Soybean [12, 29]
10: Plant response rating, Canarygrass [1, 27] | Plant response rating, Oat, Wild [13, 29]
100: Plant response rating, Chickweed [2, 26] | Plant response rating, Chickweed [2, 27] | Plant response rating, Kochia [4, 30] | Plant response rating, Velvetleaf [5, 29] | Plant response rating, Velvetleaf [5, 30] | Plant response rating, Cocklebur [8, 29] | Plant response rating, Cocklebur [8, 30] | Plant response rating, Lambsquarters [9, 29] | Plant response rating, Lambsquarters [9, 30] | Plant response rating, Pigweed [11, 29] | Plant response rating, Pigweed [11, 30] | Plant response rating, Soybean [12, 30]

Reference: patent publication US8952024B2, “Herbicidal pyrimidone derivatives” (E I du Pont de Nemours and Company, priority 2009, dated 2015)
